Results on one substance are retold here after article PMC6613200 (International Journal of Nanomedicine, 2019).

A short description of assay [1]: SPR binding of peptide aptamer to Au/Cys/carboxyl-GO chip. Conditions: carboxyl-GO with peptide aptamer, 1:1 Langmuir model. Background: In SPR one partner is held on a chip, and binding of the other changes the refractive index at the surface.
For assay [2], the system named is BSA. Briefly: SPR selectivity, peptide vs interfering BSA. Format: binding, bovine. The settings on record: mixture containing 20 nM BSA and 20 nM HSA with hCG; 100 μM peptide.
For assay [3], the system named is HSA. Description: SPR selectivity, peptide vs interfering HSA. The assay is classed as binding, human. Conditions: mixture containing 20 nM BSA and 20 nM HSA with hCG; 100 μM peptide.

In assay [1] (flow rate 30 µL/min), (N-)PPLRINRHILTR(-C) [peptide aptamer] displayed a KA of 2.81e+07 M⁻¹. Further, the “KD (kd/ka)” value in assay [1] (flow rate 30 µL/min) was 0.36×10^–7 M. Besides, the association rate ka is 32.57 ×10[4] M^−1 s^−1 in assay [1] (flow rate 30 µL/min), 13.75 ×10[4] M^−1 s^−1 in assay [1] (flow rate 60 µL/min) and 7.89 ×10[4] M^−1 s^−1 in assay [1] (flow rate 90 µL/min). Moreover, the “interaction of peptide with interfering protein” value in assay [2] is “no significant interaction between the two proteins and the peptide”; in assay [3], “no significant interaction between the two proteins and the peptide”.
